These results are taken from US11261201B2 (priority 2018, dated 2022).

SMILES strings stand for the structures. Values after ≈ are worked out from the molar mass of the structure shown. Where a name gives a salt, the structure may show the parent alone. Read-outs that look alike come from different tables or passages of the source.

In one assay the test system is A. baumannii. The assay can be described thus: Gram negative MIC protocol (OD600, LB, 24 h). The conditions noted are these: Acinetobacter baumannii, read-out: MIC A. baumannii LB Media, A. baumannii, LB media, 24 h, OD600.
The subject of a further assay is H37RvMA. The assay can be described thus: Tuberculosis Alamar Blue/Resazurin assay (MIC). The conditions noted are these: Mycobacterium tuberculosis, H37RV, WT H37Rv MTB; read-out: WT H37Rv MTB Activity. It counts as cell-based.
The next assay concerns E. coli. The assay can be described thus: Gram negative MIC protocol (OD600, LB, 24 h). The conditions noted are these: Escherichia coli.
Setting [1] is: read-out: MIC E. coli delta-TolC LB Media, E. coli delta-TolC, LB media, OD600.
The mark [2] stands for this setting: read-out: MIC WT E. coli LB Media, WT E. coli, LB media, OD600.

Method for A. baumannii: (§1) Overnight bacterial cultures were grown in LB with no added antibiotics at 37° C. with shaking. A 1:1000 dilution of these cultures into LB was exposed to concentration gradients of compounds in 96-well plates (100 μL per well assay volume). Resulting plates were incubated at 37° C. for 24 h without shaking, and OD600 was measured at the end of the incubation. MICs were determined as the lowest concentrations at which OD600 remained at baseline.
Method for E. coli: as §1

As for `CNCc1cccc(CNCCC2CCCCC2)c1` [B420, 2-cyclohexyl-N-(3-((methylamino)methyl)benzyl)ethan-1-amine], the MIC in the assay on A. baumannii, in the assay with H37RvMA, with E. coli (setting [1]) and with E. coli (setting [2]) was over 150 µM throughout.

As for `O=C1Cc2ccccc2CN1CCc1ccccc1` [B421, 2-phenethyl-1,4-dihydroisoquinolin-3(2H)-one], the MIC is over 150 µM in the assay with A. baumannii, 55.1 µM (≈ 13.8 µg/mL) in the assay on H37RvMA, over 150 µM in the assay with E. coli (setting [1]) and over 150 µM with E. coli (setting [2]).

On to `O=C1Cc2ccccc2CN1CCC1CCCCCC1` [B422, 2-(2-cycloheptylethyl)-1,4-dihydroisoquinolin-3(2H)-one], for which the MIC is over 150 µM in the assay on A. baumannii, 2.5 µM (≈ 0.679 µg/mL) in the assay with H37RvMA, 150 µM (≈ 40.7 µg/mL) with E. coli (setting [1]) and over 150 µM in the assay on E. coli (setting [2]).

On to `CC(CC1CCCCC1)NCc1cccc2ccn(Cc3ccccc3)c12` (centres unmarked) [B423, N-((1-benzyl-1H-indol-7-yl)methyl)-1-cyclohexylpropan-2-amine], for which the MIC in the assay on A. baumannii is over 150 µM; in the assay on H37RvMA, 150 µM (≈ 54.1 µg/mL); in the assay with E. coli (setting [1]) it was 55 µM (≈ 19.8 µg/mL); with E. coli (setting [2]) it was over 150 µM.

Consider `CC(CC1CCCCC1)NCc1ccccc1CS(C)(=O)=O` (centres unmarked) [B424, 1-cyclohexyl-N-(2-((methylsulfonyl)methyl)benzyl)propan-2-amine], for which the MIC was 150 µM (≈ 48.5 µg/mL) in the assay on A. baumannii, over 150 µM in the assay with H37RvMA, 3 µM (≈ 0.971 µg/mL) in the assay with E. coli (setting [1]) and 33 µM (≈ 10.7 µg/mL) in the assay on E. coli (setting [2]).

As to `O=C1CCc2ccccc2CN1CCC1CCCCC1` [B425, 2-(2-cyclohexylethyl)-1,2,4,5-tetrahydro-3H-benzo[c]azepin-3-one], the MIC with A. baumannii is over 150 µM; in the assay with H37RvMA, over 150 µM; in the assay on E. coli (setting [1]), 33 µM (≈ 8.96 µg/mL); with E. coli (setting [2]) it was over 150 µM.

Regarding `CC(CC1CCCCC1)N1Cc2ccccc2OC1=O` (centres unmarked) [B426, 3-(1-cyclohexylpropan-2-yl)-3,4-dihydro-2H-benzo[e][1,3]oxazin-2-one], the MIC is over 150 µM in the assay on A. baumannii, 1.7 µM (≈ 0.465 µg/mL) with H37RvMA, 55 µM (≈ 15 µg/mL) with E. coli (setting [1]) and over 150 µM in the assay with E. coli (setting [2]).

For `O=C1Cc2ccccc2CN1CCC1CCCC1` [B427, 2-(2-cyclopentylethyl)-1,4-dihydroisoquinolin-3(2H)-one], the MIC in the assay with A. baumannii is over 150 µM; in the assay with H37RvMA, 2.7 µM (≈ 0.657 µg/mL); with E. coli (setting [1]) it was over 150 µM; with E. coli (setting [2]), over 150 µM.

For the compound `CC(C)C[C@H](N)C(=O)NS(=O)(=O)Cc1ccccc1CNC(C)CC1CCCCC1` (stereo partly drawn) [B428, (2S)-2-amino-N-((2-(((1-cyclohexylpropan-2-yl)amino)methyl)benzyl)sulfonyl)-4-methylpentanamide dihydrochloride], the MIC in the assay with A. baumannii is over 150 µM; in the assay with H37RvMA, over 150 µM; with E. coli (setting [1]), 55 µM; in the assay with E. coli (setting [2]), over 150 µM.

In the case of `CC(CC1CCCCC1)NCc1ccccc1OCCc1ccccc1F` (centres unmarked) [B429, 1-cyclohexyl-N-(2-(2-fluorophenethoxy)benzyl)propan-2-amine], the MIC with A. baumannii was determined as 33 µM (≈ 12.2 µg/mL); in the assay with H37RvMA, 20.2 µM (≈ 7.46 µg/mL); with E. coli (setting [1]), 2 µM (≈ 0.739 µg/mL); in the assay with E. coli (setting [2]) it was 55 µM (≈ 20.3 µg/mL).

Regarding `O=C1Cc2ccccc2CN1CCC1CCOCC1` [B430, 2-(2-(tetrahydro-2H-pyran-4-yl)ethyl)-1,4-dihydroisoquinolin-3(2H)-one], the MIC in the assay on A. baumannii was over 150 µM; in the assay with H37RvMA, 55.1 µM (≈ 14.3 µg/mL); with E. coli (setting [1]), over 150 µM; in the assay on E. coli (setting [2]), over 150 µM.

Take `CC(CC1CCCCC1)NCc1ccccc1CS(=O)(=O)NCC(O)CO` (centres unmarked) [B431, 1-(2-(((1-cyclohexylpropan-2-yl)amino)methyl)phenyl)-N-(2,3-dihydroxypropyl) methanesulfonamide]: the MIC with A. baumannii is over 150 µM; in the assay on H37RvMA it was over 150 µM; with E. coli (setting [1]) it was 4 µM (≈ 1.59 µg/mL); in the assay on E. coli (setting [2]) it was 150 µM (≈ 59.8 µg/mL).

`CC(CC1CCCCC1)NCc1ccccc1CS(=O)(=O)NC1CCN(C)CC1` (centres unmarked) [B432, 1-(2-(((1-cyclohexylpropan-2-yl)amino)methyl)phenyl)-N-(1-methylpiperidin-4-yl)methanesulfonamide]: the MIC in the assay on A. baumannii is over 150 µM; with H37RvMA it was over 150 µM; with E. coli (setting [1]) it was 33 µM (≈ 13.9 µg/mL); in the assay on E. coli (setting [2]), 150 µM (≈ 63.2 µg/mL).

Regarding `CC(CC1CCCCC1)NCc1ccccc1CS(=O)(=O)NCC1CCCO1` (centres unmarked) [B433, 1-(2-(((1-cyclohexylpropan-2-yl)amino)methyl)phenyl)-N-((tetrahydrofuran-2-yl)methyl)methanesulfonamide], the MIC was 150 µM (≈ 61.3 µg/mL) with A. baumannii, over 150 µM in the assay with H37RvMA, 3 µM (≈ 1.23 µg/mL) with E. coli (setting [1]) and 150 µM (≈ 61.3 µg/mL) in the assay on E. coli (setting [2]).

For the compound `COCCNS(=O)(=O)Cc1ccccc1CNC(C)CC1CCCCC1` (centres unmarked) [B434, 1-(2-(((1-cyclohexylpropan-2-yl)amino)methyl)phenyl)-N-(2-methoxyethyl) methanesulfonamide], the MIC is 150 µM (≈ 57.4 µg/mL) in the assay with A. baumannii, over 150 µM in the assay with H37RvMA, 4 µM (≈ 1.53 µg/mL) in the assay on E. coli (setting [1]) and 150 µM (≈ 57.4 µg/mL) in the assay with E. coli (setting [2]).

For `COC(=O)Cn1ccc2cccc(CNC(C)CC3CCCCC3)c21` (centres unmarked) [B435, methyl 2-(7-(((1-cyclohexylpropan-2-yl)amino)methyl)-1H-indol-1-yl)acetate hydrochloride], the MIC is over 150 µM in the assay with A. baumannii, over 150 µM in the assay on H37RvMA, 150 µM in the assay with E. coli (setting [1]) and over 150 µM in the assay on E. coli (setting [2]).

With `CC(CC1CCCCC1)NCc1cccc2ccn(CC(=O)O)c12` (centres unmarked) [B436, 2-(7-(((1-cyclohexylpropan-2-yl)amino)methyl)-1H-indol-1-yl)acetic acid hydrochloride], the MIC with A. baumannii is over 150 µM; in the assay on H37RvMA, over 150 µM; in the assay with E. coli (setting [1]), 91 µM; in the assay with E. coli (setting [2]), over 150 µM.

For the compound `CC(CC1CCCCC1)NCc1ccccc1CS(=O)(=O)N(C)C` (centres unmarked) [B437, 1-(2-(((1-cyclohexylpropan-2-yl)amino)methyl)phenyl)-N,N-dimethylmethane sulfonamide], the MIC in the assay with A. baumannii is over 150 µM; with H37RvMA, over 150 µM; in the assay with E. coli (setting [1]), 4 µM (≈ 1.41 µg/mL); in the assay with E. coli (setting [2]), 150 µM (≈ 52.9 µg/mL).

Turning to `CC(CC1CCCCC1)NCc1ccccc1CS(=O)(=O)N(C)C[C@H](O)CO` (stereo partly drawn) [B438, 1-(2-(((1-cyclohexylpropan-2-yl)amino)methyl)phenyl)-N-((S)-2,3-dihydroxypropyl)-N-methylmethanesulfonamide], the MIC in the assay with A. baumannii is over 150 µM; in the assay with H37RvMA, over 150 µM; with E. coli (setting [1]), 7 µM (≈ 2.89 µg/mL); in the assay on E. coli (setting [2]), 150 µM (≈ 61.9 µg/mL).

On to `CC(CC1CCCCC1)NCc1ccccc1CS(=O)(=O)N1CCN(C)CC1` (centres unmarked) [B439, 1-cyclohexyl-N-(2-(((4-methylpiperazin-1-yl)sulfonyl)methyl)benzyl)propan-2-amine], for which the MIC is 150 µM (≈ 61.1 µg/mL) in the assay on A. baumannii, over 150 µM in the assay on H37RvMA, 12 µM (≈ 4.89 µg/mL) with E. coli (setting [1]) and 91 µM (≈ 37.1 µg/mL) with E. coli (setting [2]).

For `COC(=O)Cc1cccc(CNCCC2CCCCC2)c1` [B440, methyl 2-(3-(((2-cyclohexylethyl)amino)methyl)phenyl)acetate], the MIC with A. baumannii was over 150 µM; with H37RvMA, 150 µM (≈ 43.4 µg/mL); in the assay with E. coli (setting [1]) it was over 150 µM; in the assay on E. coli (setting [2]), over 150 µM.

For `CC(CC1CCCCC1)NCc1cccc2ccn(C)c12` (centres unmarked) [B441, 1-cyclohexyl-N-((1-methyl-1H-indol-7-yl)methyl)propan-2-amine hydrochloride], the MIC was over 150 µM in the assay with A. baumannii, 33.4 µM in the assay on H37RvMA, 91 µM with E. coli (setting [1]) and over 150 µM in the assay on E. coli (setting [2]).

For `CC(CC1CCCCC1)NCc1cccc2ccn(CCO)c12` (centres unmarked) [B442, 2-(7-(((1-cyclohexylpropan-2-yl)amino)methyl)-1H-indol-1-yl)ethan-1-ol hydrochloride], the MIC with A. baumannii is over 150 µM; in the assay on H37RvMA, 150 µM; in the assay with E. coli (setting [1]), 150 µM; in the assay with E. coli (setting [2]), over 150 µM.

Consider `CNS(=O)(=O)Cc1ccccc1CNC(C)CC1CCCCC1` (centres unmarked) [B445, 1-(2-(((1-cyclohexylpropan-2-yl)amino)methyl)phenyl)-N-methylmethanesulfonamide], for which the MIC with A. baumannii was 150 µM (≈ 50.8 µg/mL); with H37RvMA it was over 150 µM; with E. coli (setting [1]), 4 µM (≈ 1.35 µg/mL); in the assay on E. coli (setting [2]), 55 µM (≈ 18.6 µg/mL).

For `CCNS(=O)(=O)Cc1ccccc1CNC(C)CC1CCCCC1` (centres unmarked) [B446, 1-(2-(((1-cyclohexylpropan-2-yl)amino)methyl)phenyl)-N-ethylmethanesulfonamide], the MIC in the assay with A. baumannii was over 150 µM; in the assay with H37RvMA, over 150 µM; in the assay on E. coli (setting [1]), 7 µM (≈ 2.47 µg/mL); with E. coli (setting [2]), 91 µM (≈ 32.1 µg/mL).

Take `CC(CC1CCCCC1)NCc1ccccc1CS(=O)(=O)NCC(=O)O` (centres unmarked) [B448, ((2-(((1-cyclohexylpropan-2-yl)amino)methyl)benzyl)sulfonyl)glycine]: the MIC in the assay with A. baumannii, in the assay on H37RvMA, with E. coli (setting [1]) and in the assay with E. coli (setting [2]) was over 150 µM each time.

As for `CC(CC1CCCCC1)NCc1ccccc1CS(=O)(=O)NC(=O)NC1CCCCC1` (centres unmarked) [B449, N-(cyclohexylcarbamoyl)-1-(2-(((1-cyclohexylpropan-2-yl)amino)methyl)phenyl) methanesulfonamide], the MIC is over 150 µM in the assay on A. baumannii, over 150 µM with H37RvMA, 12 µM (≈ 5.4 µg/mL) with E. coli (setting [1]) and over 150 µM in the assay on E. coli (setting [2]).

For `CC1CCC(NC(=O)NS(=O)(=O)Cc2ccccc2CNC(C)CC2CCCCC2)CC1` (centres unmarked) [B450, 1-(2-(((1-cyclohexylpropan-2-yl)amino)methyl)phenyl)-N-((4-methylcyclohexyl)carbamoyl)methanesulfonamide], the MIC is over 150 µM with A. baumannii, 150 µM (≈ 69.6 µg/mL) in the assay with H37RvMA, 150 µM (≈ 69.6 µg/mL) with E. coli (setting [1]) and over 150 µM in the assay on E. coli (setting [2]).

`CC(CC1CCCCC1)NCc1ccccc1CCS(N)(=O)=O` (centres unmarked) [B451, 2-(2-(((1-cyclohexylpropan-2-yl)amino)methyl)phenyl)ethane-1-sulfonamide]: the MIC with A. baumannii was 150 µM (≈ 50.8 µg/mL); in the assay with H37RvMA, over 150 µM; in the assay with E. coli (setting [1]), 4 µM (≈ 1.35 µg/mL); in the assay on E. coli (setting [2]) it was 55 µM (≈ 18.6 µg/mL).
